Laboratory results as given in patent publication US20180099931A1 (AbbVie S.à.r.l., priority 2016, published 2018).
pEC50: −log10 of the molar value. Like-named read-outs stand apart in the source and are kept apart here.

Target: T1, F508delCFTR (Homo sapiens, UniProt P13569, DEL508-508)
T1 construct: expressed in transfected cells; host or cells: CFBE41o- human lung-derived epithelial cells (CFBE4lo-F508delCFTR-HRP), doxycycline-inducible
Assay: Cell Surface Expression-Horse Radish Peroxidase (CSE-HRP) Assay;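 for Maximum % activity (with co-corrector): co-corrector and positive control are both the same reference corrector at 2 µM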;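 for Maximum % activity (without co-corrector): percent of the 2 µM on-plate positive control corrector response above DMSO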
Assay type: cell-based
Conditions: for Emax / Maximum % activity (with co-corrector): maximum at any tested concentration, normalized to on-plate positive control; for Emax: read-out: Maximum % activity (without co-corrector)
Method: Cell Surface Expression-Horse Radish Peroxidase (CSE-HRP) Assay;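 for Maximum % activity (with co-corrector): co-corrector and positive control are both the same reference corrector at 2 µM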;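 for Maximum % activity (without co-corrector): percent of the 2 µM on-plate positive control corrector response above DMSO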
The development was achieved by expressing the F508delCFTR mutation along with a horseradish peroxidase (HRP) in the fourth exofacial loop, and then measuring the HRP activity using luminescence readout from these cells, CFBE4lo-F508delCFTR-HRP, that were incubated overnight with the test corrector compounds, either without or with the co-corrector. […] The test compounds were then added either without or with a co-corrector at the required concentrations and further incubated for 18-24 hours at 33° C. The highest concentration tested was 20 μM with an 8-point concentration response curve using a 3-fold dilution in both the test compound without or with the co-corrector. Three replicate plates were run to determine one EC50. All plates contained negative controls (dimethyl sulfoxide, DMSO) and positive control (2 μM of 3-[(2R,4R)-4-({[1-(2,2-difluoro-1,3-benzodioxol-5-yl)cyclopropyl]carbonyl}amino)-7-methoxy-3,4-dihydro-2H-chromen-2-yl]benzoic acid) as well as on-plate concentration response of the positive control. […] The raw counts from the experiment were analyzed using Accelrys® Assay Explorer v3.3.
1−[3*SDPositive Control+3*SDNegative Control/Absolute(MeanPositive Control−MeanNegative Control)]
wherein “SD” is standard deviation.
The % activity measured at each of the 8 test concentrations of the test compound added either without or with a co-corrector (2 μM of 3-[(2R,4R)-4-({[1-(2,2-difluoro-1,3-benzodioxol-5-yl)cyclopropyl]carbonyl}amino)-7-methoxy-3,4-dihydro-2H-chromen-2-yl]benzoic acid) was normalized to the on-plate positive control using the following formulae:
% activity(Test compound without co-corrector)=[(test compound without co-corrector response−DMSO response)/(positive control response−DMSO response)]*100
% activity(Test compound with co-corrector)=[(test compound with co-corrector response−DMSO response)/(positive control response−DMSO response)]*100
The maximum % activity achieved for the test compound either without or with a co-corrector at any tested concentration is presented in Table 4 along with the respective EC50's calculated using the following general sigmoidal curve with variable Hill slope equation (described as Model 42 in the Accelrys® Assay Explorer v3.3 software):
General sigmoidal curve with concentration, response, top, bottom, EC50 and Hill slope. This model describes a sigmoidal curve with an adjustable baseline, a. The equation can be used to fit curves where response is either increasing or decreasing with respect to the independent variable, “x”.
“x” is a concentration of drug under test. “y” is the response. “a” is the maximum response, and “d” is the minimum response “c” is the inflection point (EC50) for the curve. That is, “y” is halfway between the lower and upper asymptotes when x=c. “b” is the slope-factor or Hill coefficient. The sign of b is positive when the response increases with increasing dose and is negative when the response decreases with increasing dose (inhibition).

[1] = test compound without co-corrector
[2] = test compound without co-corrector, read-out: EC50 (without co-corrector)
[3] = with co-corrector (2 μM of 3-[(2R,4R)-4-({[1-(2,2-difluoro-1,3-benzodioxol-5-yl)cyclopropyl]carbonyl}amino)-7-methoxy-3,4-dihydro-2H-chromen-2-yl]benzoic acid), read-out: EC50 (with co-corrector)
[4] = CSE-HRP, test compound without co-corrector, read-out: EC50 (without co-corrector)
[5] = CSE-HRP, with co-corrector (2 μM of 3-[(2R,4R)-4-({[1-(2,2-difluoro-1,3-benzodioxol-5-yl)cyclopropyl]carbonyl}amino)-7-methoxy-3,4-dihydro-2H-chromen-2-yl]benzoic acid), read-out: EC50 (with co-corrector)
[6] = CSE-HRP, with co-corrector (2 μM)
[7] = with co-corrector (2 μM of 3-[(2R,4R)-4-({[1-(2,2-difluoro-1,3-benzodioxol-5-yl)cyclopropyl]carbonyl}amino)-7-methoxy-3,4-dihydro-2H-chromen-2-yl]benzoic acid)

T1 sequence (P13569 with tags, fused parts or gaps DEL508-508): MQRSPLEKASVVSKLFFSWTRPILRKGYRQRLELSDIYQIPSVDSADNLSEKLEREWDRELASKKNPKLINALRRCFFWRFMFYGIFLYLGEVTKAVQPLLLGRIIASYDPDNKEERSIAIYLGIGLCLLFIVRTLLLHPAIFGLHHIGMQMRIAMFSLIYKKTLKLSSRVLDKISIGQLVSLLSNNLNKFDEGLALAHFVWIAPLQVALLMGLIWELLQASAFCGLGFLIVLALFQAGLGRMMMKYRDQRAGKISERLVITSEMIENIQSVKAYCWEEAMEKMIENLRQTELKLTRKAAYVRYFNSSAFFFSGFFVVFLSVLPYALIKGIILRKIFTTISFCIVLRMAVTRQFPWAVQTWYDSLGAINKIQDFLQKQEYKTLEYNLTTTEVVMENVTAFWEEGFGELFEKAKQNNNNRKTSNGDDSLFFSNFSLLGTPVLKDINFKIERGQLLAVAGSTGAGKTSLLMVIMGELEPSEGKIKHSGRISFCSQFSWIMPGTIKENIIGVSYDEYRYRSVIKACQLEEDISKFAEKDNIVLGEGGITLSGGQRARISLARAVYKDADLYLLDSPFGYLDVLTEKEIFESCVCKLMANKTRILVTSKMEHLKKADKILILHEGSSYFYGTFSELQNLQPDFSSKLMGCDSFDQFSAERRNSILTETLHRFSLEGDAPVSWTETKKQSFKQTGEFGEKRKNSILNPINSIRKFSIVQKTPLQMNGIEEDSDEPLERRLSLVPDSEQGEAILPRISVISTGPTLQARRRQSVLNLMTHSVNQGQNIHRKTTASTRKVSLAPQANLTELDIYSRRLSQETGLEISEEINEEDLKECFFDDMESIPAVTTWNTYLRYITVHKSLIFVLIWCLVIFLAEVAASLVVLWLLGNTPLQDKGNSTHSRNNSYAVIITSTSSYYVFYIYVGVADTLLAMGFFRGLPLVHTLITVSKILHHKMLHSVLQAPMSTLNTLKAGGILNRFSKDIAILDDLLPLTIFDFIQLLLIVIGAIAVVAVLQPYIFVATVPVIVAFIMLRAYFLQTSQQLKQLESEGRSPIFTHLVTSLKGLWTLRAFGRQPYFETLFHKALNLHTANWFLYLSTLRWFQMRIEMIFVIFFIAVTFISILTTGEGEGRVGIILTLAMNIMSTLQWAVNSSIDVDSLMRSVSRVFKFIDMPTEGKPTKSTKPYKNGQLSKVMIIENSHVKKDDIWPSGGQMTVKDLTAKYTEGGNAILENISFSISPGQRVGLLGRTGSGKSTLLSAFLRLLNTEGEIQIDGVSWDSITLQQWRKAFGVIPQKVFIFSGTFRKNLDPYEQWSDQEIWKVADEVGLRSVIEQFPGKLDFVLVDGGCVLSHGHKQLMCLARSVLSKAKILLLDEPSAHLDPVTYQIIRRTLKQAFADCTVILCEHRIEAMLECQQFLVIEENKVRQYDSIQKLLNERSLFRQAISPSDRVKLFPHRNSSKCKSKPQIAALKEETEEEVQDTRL

| Compound | Emax [1] [%] | pEC50 [2] | pEC50 [3] | Maximum % activity (with co-corrector) (with co-corrector (2 μM)) | pEC50 [4] | pEC50 [5] | Maximum % activity (with co-corrector) [6] | Emax (CSE-HRP, without co-corrector) [%] | Maximum % activity (with co-corrector) [7] | Emax (without co-corrector) [%] |
| --- | --- | --- | --- | --- | --- | --- | --- | --- | --- | --- |
| COc1ccc(C#N)cc1CN[C@@H]1[C@@H](C(C)(C)C)[C@H](C(=O)O)N(C(=O)C2CCCCC2)[C@@H]1c1ccccc1 (racemic) [II-71] |  |  |  |  | 5.00 to 6.00 | 5.00 to 6.00 | ++ (≥150 and <350) | < 100 |  |  |
| COc1ccc(C(C)(C)C)cc1CN[C@H]1[C@H](C(C)(C)C)[C@@H](C(=O)O)N(C(=O)CC2(O)CCCCC2)[C@H]1c1ccccc1 [II-210] |  |  |  |  | 5.00 to 6.00 | 5.00 to 6.00 | +++ (≥350) | > 200 |  |  |
| COc1cc(C(F)(F)F)ccc1CN[C@H]1[C@H](C(C)(C)C)[C@@H](C(=O)O)N(C(=O)C2CCCCO2)[C@H]1c1cccnc1OC (relative stereo) [II-98] |  |  |  |  | 5.00 to 6.00 | 5.00 to 6.00 | +++ (≥350) | 100 to 200 |  |  |
| COc1ccc(Cl)cc1CN[C@H]1[C@H](C(C)(C)C)[C@@H](C(=O)O)N(C(=O)C2CCCCC2)[C@H]1c1cccnc1C [II-95] |  |  |  |  | 5.00 to 6.00 | 5.00 to 6.00 | +++ (≥350) | < 100 |  |  |
| COc1ccncc1CN[C@@H]1[C@@H](C(C)(C)C)[C@H](C(=O)O)N(C(=O)C2CCCCC2)[C@@H]1c1ccccc1 (racemic) [III-16] | < 100 | < 5.00 | < 5.00 |  |  |  |  |  | + (<150) |  |
| COc1cc2ccccc2cc1CN[C@@H]1[C@H](C(C)(C)C)[C@@H](C(=O)O)N(C(=O)OC(C)C)[C@H]1c1ccccc1 [II-554] | 100 to 200 | 5.00 to 6.00 | 5.00 to 6.00 |  |  |  |  |  | +++ (≥350) |  |
| COc1ccc(C(F)(F)F)cc1CN[C@H]1[C@H](C(C)(C)C)[C@@H](C(=O)O)N(C(=O)C2CCCCC2)[C@H]1c1cccnc1OC [II-573] | 100 to 200 | 5.00 to 6.00 | 5.00 to 6.00 |  |  |  |  |  | +++ (≥350) |  |
| COc1ccc(C(F)(F)F)cc1CN[C@H]1[C@H](C(C)(C)C)[C@@H](C(=O)O)N(C(=O)CC2CCCCO2)[C@H]1c1ccccc1 (stereo partly shown) [Example I-84] |  | 5.00 to 6.00 | 5.00 to 6.00 | +++ (≥350) |  |  |  |  |  | 100 to 200 |
| COc1nc(C(C)(C)C)ncc1CN[C@H]1[C@H](C(C)(C)C)[C@@H](C(=O)O)N(C(=O)C2CCCCC2)[C@H]1c1ccccc1 [Example I-207] |  | 5.00 to 6.00 | 5.00 to 6.00 | +++ (≥350) |  |  |  |  |  | 100 to 200 |
| COc1cc(Cl)ccc1CN[C@H]1[C@H](C(C)(C)C)[C@@H](C(=O)O)N(C(=O)C2CCCCC2)[C@H]1c1ccccc1 [II-99] |  |  |  |  | 5.00 to 6.00 | 5.00 to 6.00 | +++ (≥350) | 100 to 200 |  |  |

The next lines start with the values.

| Emax [1] [%] | pEC50 [2] | pEC50 [3] | Maximum % activity (with co-corrector) (with co-corrector (2 μM)) | pEC50 [4] | pEC50 [5] | Maximum % activity (with co-corrector) [6] | Emax (CSE-HRP, without co-corrector) [%] | Maximum % activity (with co-corrector) [7] | Emax (without co-corrector) [%] | Compound |
| --- | --- | --- | --- | --- | --- | --- | --- | --- | --- | --- |
| 100 to 200 | > 6.00 | > 6.00 | +++ (≥350) |  |  |  |  |  |  | COc1ncc(C(F)(F)F)cc1CN[C@H]1[C@H](C(C)(C)C)[C@@H](C(=O)O)N(C(=O)C2CC(C)CC(C)C2)[C@H]1c1ccccc1 (stereo partly shown) [III-201] |
| < 100 | 5.00 to 6.00 | 5.00 to 6.00 |  |  |  |  |  | +++ (≥350) |  | COc1ccccc1CN[C@@H]1[C@@H](C(C)(C)C)[C@H](C(=O)O)N(C(=O)C2CCCCC2)[C@@H]1c1ccccc1 (racemic) [III-12] |
| 100 to 200 | 5.00 to 6.00 | > 6.00 |  |  |  |  |  | +++ (≥350) |  | COc1ccc(C(C)(C)C)cc1CN[C@H]1[C@H](C(C)(C)C)[C@@H](C(=O)O)N(C(=O)C2CCC(C(F)(F)F)CC2)[C@H]1c1ccccc1 (stereo partly shown) [II-374] |
|  | 5.00 to 6.00 | 5.00 to 6.00 | +++ (≥350) |  |  |  |  |  | 100 to 200 | CCc1c(C(=O)N2[C@H](C(=O)O)[C@@H](C(C)(C)C)[C@H](NCc3cc(C(C)(C)C)ccc3OC)[C@@H]2c2ccccc2)cnn1-c1ccc(OC)nn1 [Example I-144] |
| 100 to 200 | 5.00 to 6.00 | 5.00 to 6.00 |  |  |  |  |  | +++ (≥350) |  | COc1ccc(C(C)(C)C)cc1CN[C@H]1[C@H](C(C)(C)C)[C@@H](C(=O)O)N(C(=O)C2CC2c2ccncc2)[C@H]1c1ccccc1 (stereo partly shown) [II-331] |
|  | 5.00 to 6.00 | > 6.00 | +++ (≥350) |  |  |  |  |  | > 200 | COc1ncc(C2CCC2)cc1CN[C@H]1[C@H](C(C)(C)C)[C@@H](C(=O)O)N(C(=O)[C@H]2CCCCO2)[C@H]1c1ccccc1C(C)C [Example 72, (2S,3S,4S,5S)-3-tert-butyl-4-{[(5-cyclobutyl-2-methoxypyridin-3-yl)methyl]amino}-1-[(2R)-oxane-2-carbonyl]-5-[2-(propan-2-yl)phenyl]pyrrolidine-2-carboxylic acid] |
| < 100 | 5.00 to 6.00 | 5.00 to 6.00 |  |  |  |  |  | ++ (≥150 and <350) |  | COc1ncc(C(F)(F)F)cc1N[C@H]1[C@H](C(C)(C)C)[C@@H](C(=O)O)N(C(=O)C2CCCC(F)(F)C2)[C@H]1c1cccnc1N(C)C (stereo partly shown) [II-488] |
| > 200 | 5.00 to 6.00 | > 6.00 |  |  |  |  |  | +++ (≥350) |  | COc1ccc(C2(C)CCC2)cc1CN[C@H]1[C@H](C(C)(C)C)[C@@H](C(=O)O)N(C(=O)[C@@H]2CCCO2)[C@H]1c1ccccc1C(C)C [II-593] |
| 100 to 200 | > 6.00 | > 6.00 |  |  |  |  |  | +++ (≥350) |  | COc1ncc(-c2ccc(C)cc2)cc1CN[C@H]1[C@H](C(C)(C)C)[C@@H](C(=O)O)N(C(=O)C2CCCCC2)[C@H]1c1ccccc1 [II-347] |
| < 100 | 5.00 to 6.00 | 5.00 to 6.00 | ++ (≥150 and <350) |  |  |  |  |  |  | CC(C)(C)[C@H]1[C@H](Nc2cncc3ccccc23)[C@H](c2ccccc2)N(C(=O)C2CCCCC2)[C@@H]1C(=O)O [III-162] |
| 100 to 200 | 5.00 to 6.00 | 5.00 to 6.00 |  |  |  |  |  | +++ (≥350) |  | COc1cc2ccccc2cc1CN[C@H]1[C@H](C(C)(C)C)[C@@H](C(=O)O)N(C(=O)OC(C)C)[C@H]1c1cccnc1N(C)C [II-562] |
| > 200 | 5.00 to 6.00 | > 6.00 |  |  |  |  |  | +++ (≥350) |  | COc1ccc(C(C)(C)C)cc1CN[C@H]1[C@H](C(C)(C)C)[C@@H](C(=O)O)N(C(=O)C2CCc3cc(F)ccc3O2)[C@H]1c1ccccc1 (stereo partly shown) [II-320] |
| > 200 | 5.00 to 6.00 | > 6.00 | +++ (≥350) |  |  |  |  |  |  | COc1ccc(C(C)(C)C)cc1CN[C@H]1[C@H](C(C)(C)C)[C@@H](C(=O)O)N(C(=O)Cc2ccc(F)cc2F)[C@H]1c1ccccc1 [III-173] |
| > 200 | 5.00 to 6.00 | > 6.00 |  |  |  |  |  | +++ (≥350) |  | COc1ccc(C(F)(F)F)cc1CN[C@H]1[C@H](C(C)(C)C)[C@@H](C(=O)O)N(C(=O)OC(C)C)[C@H]1c1ccccc1C [II-581] |
| 100 to 200 | > 6.00 | > 6.00 |  |  |  |  |  | +++ (≥350) |  | COc1ncc(C(C)(C)C)cc1CN[C@H]1[C@H](C(C)(C)C)[C@@H](C(=O)O)N(C(=O)C2CCCCC2)[C@H]1c1ccccc1F [II-351] |
